From ChEMBL document CHEMBL3039007, “Structure-based identification of OATP1B1/3 inhibitors” (Mol Pharmacol, 2013)
Structures can show the parent of a compound that is named as a salt. Residues, ends and D or L forms follow the SMILES beside them. *: point of attachment. Tfa = O=C(C(F)(F)F)*; For = O=C*

Assays:
[1] = biological target: T1, Solute carrier organic anion transporter family member 1B1 (Homo sapiens, UniProt Q9Y6L6); conditions: chinese hamster, cho, 10 µM
T1 sequence (Q9Y6L6 whole entry): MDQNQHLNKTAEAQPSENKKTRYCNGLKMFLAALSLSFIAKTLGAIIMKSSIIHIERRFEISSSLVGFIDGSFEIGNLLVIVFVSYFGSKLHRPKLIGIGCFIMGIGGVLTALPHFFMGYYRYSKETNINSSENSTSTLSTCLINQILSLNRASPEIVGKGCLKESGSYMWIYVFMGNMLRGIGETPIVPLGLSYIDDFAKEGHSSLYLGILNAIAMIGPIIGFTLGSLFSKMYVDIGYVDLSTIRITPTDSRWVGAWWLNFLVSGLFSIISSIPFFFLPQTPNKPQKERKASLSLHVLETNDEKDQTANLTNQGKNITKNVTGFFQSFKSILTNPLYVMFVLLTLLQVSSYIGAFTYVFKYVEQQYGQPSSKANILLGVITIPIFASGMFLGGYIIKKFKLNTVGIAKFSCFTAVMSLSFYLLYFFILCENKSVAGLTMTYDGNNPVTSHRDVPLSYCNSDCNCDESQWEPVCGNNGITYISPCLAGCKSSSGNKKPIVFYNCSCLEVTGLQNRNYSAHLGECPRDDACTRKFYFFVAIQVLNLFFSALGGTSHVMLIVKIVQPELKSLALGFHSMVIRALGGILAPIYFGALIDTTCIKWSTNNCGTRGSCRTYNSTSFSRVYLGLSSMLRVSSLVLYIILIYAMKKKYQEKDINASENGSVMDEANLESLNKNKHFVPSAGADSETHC

[2] = biological target: T2, Solute carrier organic anion transporter family member 1B3 (Homo sapiens, UniProt Q9NPD5); conditions: chinese hamster, cho, 10 µM
T2 sequence (Q9NPD5 whole entry): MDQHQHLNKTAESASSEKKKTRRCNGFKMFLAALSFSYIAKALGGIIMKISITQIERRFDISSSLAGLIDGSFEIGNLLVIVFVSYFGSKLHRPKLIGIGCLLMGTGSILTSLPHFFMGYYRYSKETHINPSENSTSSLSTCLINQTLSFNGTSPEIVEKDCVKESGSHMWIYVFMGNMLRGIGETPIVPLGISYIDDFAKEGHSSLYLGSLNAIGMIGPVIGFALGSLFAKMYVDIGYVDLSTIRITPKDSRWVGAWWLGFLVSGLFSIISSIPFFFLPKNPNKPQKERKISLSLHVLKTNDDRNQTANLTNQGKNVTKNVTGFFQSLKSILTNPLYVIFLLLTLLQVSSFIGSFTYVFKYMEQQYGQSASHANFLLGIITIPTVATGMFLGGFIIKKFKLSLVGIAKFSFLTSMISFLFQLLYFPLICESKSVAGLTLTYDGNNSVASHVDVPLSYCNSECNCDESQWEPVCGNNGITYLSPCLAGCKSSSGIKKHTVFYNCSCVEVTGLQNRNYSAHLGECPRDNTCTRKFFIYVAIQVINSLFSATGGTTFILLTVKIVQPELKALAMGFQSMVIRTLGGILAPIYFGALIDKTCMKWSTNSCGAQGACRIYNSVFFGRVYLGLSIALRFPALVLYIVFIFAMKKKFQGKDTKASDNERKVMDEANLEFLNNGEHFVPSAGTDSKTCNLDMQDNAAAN

| Compound | residual activity [1] [%] | residual activity [2] [%] |
| --- | --- | --- |
| CN1CCN(CCCN2c3ccccc3Sc3ccc(C(F)(F)F)cc32)CC1.Cl | 146.4 | 70.51 |
| O=C([O-])c1ccccc1O.[Na+] [SODIUM SALICYLATE] | 55.28 | 80.83 |
| Cc1cc(=O)oc2c(O)c(O)ccc12 [4-METHYLDAPHNETIN] | 61.23 | 78.2 |
| ClC1=C(Cl)C2(Cl)C3C(Cl)C=CC3C1(Cl)C2(Cl)Cl (stereo not given) [HEPTACHLOR] | 98.77 | 131.9 |
| Nc1nc(N)c2nc(CNc3ccc(C(=O)N[C@@H](CCC(=O)O)C(=O)O)cc3)cnc2n1 [AMINOPTERIN] | 89.56 | 124.5 |
| CC(=O)N[C@@H](Cc1c[nH]c2ccccc12)C(=O)O [ACETYLTRYPTOPHAN] | 63.36 | 85.99 |
| C=C(C)[C@H]1COc2cc3oc(=O)ccc3cc2O1 [OBLIQUIN] | 112.3 | 103.6 |
| Cn1cc[nH]c1=S [METHIMAZOLE] | 111.7 | 105.6 |
| C=C(C)c1cc2cc(C(C)=O)c(O)cc2o1 [EUPARIN] | 94.93 | 98.85 |
| COc1cc2c(cc1OC)[C@@H]1C(=O)c3ccc4c(c3O[C@@H]1CO2)CC(C(C)C)O4 (stereo not given in full) [DIHYDROROTENONE] | 53.61 | 63.71 |
| CO[C@@H]1[C@@H](OC(N)=O)[C@@H](O)[C@H](Oc2ccc3c([O-])c(NC(=O)c4ccc(O)c(CC=C(C)C)c4)c(=O)oc3c2C)OC1(C)C.[Na+] [NOVOBIOCIN SODIUM] | 56.21 | 47.15 |
| COc1ccc2[nH]cc(CCNC(C)=O)c2c1 [MELATONIN] | 71.02 | 91.63 |
| C[C@H](C(=O)O)[C@H]1CC[C@H]2[C@@H]3CC=C4C[C@@H](O)CC[C@]4(C)[C@H]3CC[C@]12C | 71.16 | 83.58 |
| C=C(C)[C@H]1CN[C@H](C(=O)O)[C@H]1CC(=O)O [KAINIC ACID] | 106.3 | 103.1 |
| COc1cc2c3cc1Oc1cc(ccc1O)C[C@@H]1c4c(cc(OC)c(O)c4Oc4ccc(cc4)C[C@@H]3N(C)CC2)CC[N+]1(C)C.[Cl-] | 99.28 | 110.3 |
| CN1CCCC(n2nc(Cc3ccc(Cl)cc3)c3ccccc3c2=O)CC1.Cl (stereo not given) [AZELASTINE HYDROCHLORIDE] | 43.45 | 134.9 |
| CSCC[C@H](NC=O)C(=O)N[C@@H](Cc1ccccc1)C(=O)O (For-Met-Phe-OH) | 38.77 | 104.4 |
| COC(=O)[C@]1(C)CC[C@]2(C)CC[C@]3(C)C4=CC=C5C(=CC(=O)C(O)=C5C)[C@]4(C)CC[C@@]3(C)[C@@H]2C1 [PRISTIMERIN] | 112.2 | 99.45 |
| CN1C[C@H](C(=O)N[C@]2(C)O[C@@]3(O)[C@@H]4CCCN4C(=O)[C@H](Cc4ccccc4)N3C2=O)C[C@@H]2c3cccc4[nH]cc(c34)C[C@H]21.CS(=O)(=O)O [DIHYDROERGOTAMINE MESYLATE] | 27.06 | 10.07 |
| CC(C)[C@H](NC(=O)[C@H](Cc1ccc(O)cc1)NC(=O)[C@@H](NC(=O)C(F)(F)F)C(C)C)C(=O)O [Tfa-VAL-TYR-VAL-OH] (Tfa-Val-Tyr-Val-OH) | 108 | 96.81 |
| COc1cc(-c2coc3cc(OCc4ccccc4)c(OC)c(O)c3c2=O)cc(OCc2ccccc2)c1OC [IRIGENIN, DIBENZYL ETHER] | 92.09 | 93.33 |
| Cc1ccc(Cl)c(Nc2ccccc2C(=O)[O-])c1Cl.O.[Na+] [MECLOFENAMATE SODIUM] | 77.28 | 87.03 |
| C[C@@H]1O[C@@H](OC[C@H]2O[C@@H](Oc3c(-c4ccc(OCCO)c(OCCO)c4)oc4cc(OCCO)cc(O)c4c3=O)[C@H](O)[C@@H](O)[C@@H]2O)[C@H](O)[C@H](O)[C@H]1O [TROXERUTIN] | 61.9 | 49.51 |

| Compound | residual activity [1] [%] | residual activity [2] [%] |
| --- | --- | --- |
| C=C1[C@@H]2CC[C@@]3(C)[C@H](c4ccoc4)OC(=O)C[C@]13O[C@H]1CC(=O)C(C)(C)[C@H](CC(=O)OC)[C@]12C [METHYLANGOLENSATE] | 20.27 | 33.7 |
| C[n+]1cc2c3c(ccc2c2ccc4cc5c(cc4c21)OCO5)OCO3.O=S(=O)([O-])O [SANGUINARINE SULFATE] | 134.6 | 92.42 |
| O=C(O)COc1cc(Cl)c(Cl)cc1Cl [2,4,5-TRICHLOROPHENOXYACETIC ACID] | 95.54 | 96.75 |
| CC(=O)Nc1ccc(O)cc1 [ACETAMINOPHEN] | 99.98 | 96.68 |
| COc1ccc2cc1Oc1ccc(cc1)C[C@H]1c3c(cc4c(c3Oc3cc5c(cc3OC)CCN(C)[C@@H]5C2)OCO4)CCN1C [CEPHARANTHINE] | 91.94 | 125.1 |
| CCCOc1ccc2nc(NC(=O)OC)[nH]c2c1 [OXIBENDAZOLE] | 102.5 | 119.5 |
| COC(=O)C1=C(C)NC(C)=C(C(=O)OCCN(C)Cc2ccccc2)C1c1cccc([N+](=O)[O-])c1.Cl (stereo not given) [NICARDIPINE HYDROCHLORIDE] | 56.95 | 67.41 |
| Cc1cc(O)cc(C)c1Cl [CHLOROXYLENOL] | 116.8 | 121.1 |
| Nc1nc(/C(=C/CC(=O)O)C(=O)N[C@@H]2C(=O)N3C(C(=O)O)=CCS[C@H]23)cs1 [CEFTIBUTEN] | 90.54 | 84.47 |
| CC(=O)O[C@H]1CC[C@@]2(C)C(=CC[C@@H]3[C@@H]2CC[C@]2(C)C(=O)CC[C@@H]32)C1 [DEHYDROEPIANDROSTERONE ACETATE] | 97.61 | 140.4 |
| CCN(CC)CCNC(=O)c1cc(Cl)c(N)cc1OC.Cl | 84.82 | 108.2 |
| O=C1CC(c2ccccc2)Oc2ccccc21 (stereo not given) [FLAVANONE] | 76.99 | 79.68 |
| CN(C)CC/C=C1/c2ccccc2Sc2ccc(Cl)cc21.Cl [CHLORPROTHIXENE HYDROCHLORIDE] | 85.65 | 101.8 |
| COC(=O)[C@]1(C)CCC[C@]2(C)c3ccc(C(C)C)cc3C(=O)CC12 (stereo not given in full) [7-OXOCALLITRISIC ACID, METHYL ESTER] | 127.8 | 105.6 |
| COc1ccc(-c2coc3cc(O)ccc3c2=O)c(OC)c1O [KHRINONE E] | 85.61 | 96.23 |
| COC1=C(O)C(=O)c2c(cc3oc(C(C)=O)c(O)c3c2O)C1=O [RHODOCLADONIC ACID] | 93.89 | 96.54 |
| CC(C)[N+](C)(CCC(C(N)=O)(c1ccccc1)c1ccccc1)C(C)C.[I-] [ISOPROPAMIDE IODIDE] | 83.43 | 91.67 |
| COc1cc(-c2coc3cc(OC)c(OC)c(OC)c3c2=O)cc(OC)c1OC [IRIGENIN TRIMETHYL ETHER] | 216.2 | 91.27 |
| CC[C@@H](CO)NCCN[C@@H](CC)CO.Cl | 71.57 | 86.34 |
| COC(=O)COc1ccc(Cl)cc1Cl [2,4-DICHLOROPHENOXYACETIC ACID, METHYL ESTER] | 116.2 | 110 |
| O=C(O)c1cc(=O)c2ccccc2o1 [CHROMOCARB] | 133.6 | 93 |
| Cc1ccsc1/C=C/C1=NCCCN1C.O=C(O)CC(O)(CC(=O)O)C(=O)O [MORANTEL CITRATE] | 115.3 | 103.6 |
